Measured values published in US11517604B2, “Method for preparing Plectranthus amboinicus fraction having anti-arthritis activity” (ONENESS BIOTECH CO., priority 2011, dated 2022).

Key:
Format in all cases: cell-based, human
IL-5 = assay: PHA-induced IL-5 release from PBMCs (ELISA); conditions: PHA + 0.1uM DEX; PHA alone 161.9, without PHA 37.0
Procedure: (§1) The peripheral blood mononuclear cells (PBMCs) from the blood of healthy adult donors were diluted and isolated by Ficoll-Paque (FP) gradient centrifugation (Amersham Biosciences) at 600 g for 30 min at room temperature. The isolated PBMCs were washed by phosphate buffered saline, re-suspended in 10% heat inactivated fetal bovine serum (FBS), and seeded in 96-well culture plate with a density of […] cells per well for assessing the anti-arthritis activity of the extracts as described herein.
(§2) PHA-induced PBMC proliferation was used as a technical platform for the assessment of anti-inflammation efficacy of various extracts of the present invention. Human PBMCs were co-cultured with PHA at a final concentration of 5 μg/mL and various extracts of Plectranthus amboinicus at a final concentration of 0˜90 μg/mL for 3 days. […] The absorbance of each well was detected by a photoelectric colorimeter at the wavelength of 540 nm. […] Three independent experiments were performed, and the data determined by MTT assays were further expressed as IC50.
(§3) On Day 3, cell supernatant was collected, divided, and stored at −20° C. until analysis. The amounts of TNF-α, interleukin IL-6, IFN-γ, and IL-5 in the supernatant were measured using Quantikine ELISA kits (R & D Systems, Minneapolis, Minn.) following the manufacturer's instruction.

IFN-γ = assay: PHA-induced IFN-γ release from PBMCs (ELISA); conditions: PHA + 0.1uM DEX; PHA alone 176.8, without PHA 25.0
Procedure: as §1, §2, §3

[1] = tested on: PHA-induced PBMC proliferation; assay: Inhibition of PHA-induced PBMC proliferation (MTT assay); conditions: positive control 0.1 uM; PHA 5 μg/mL, 3 days; PHA alone 0.634, without PHA 0.245
Procedure: as §1
as §2, with “days. PBMCs treated by dexamethasone (DEX) before stimulation by PHA (5 μg/mL) were also included in the experiment as positive control samples. After cells were incubated for 3 days at 37° C. with humid air containing 5% CO2, MTT (methyl thiazolyl tetrazolium, MTT) assays were carried out to evaluate the proliferation rate of PBMCs.” for “days.”

TNF-α = assay: PHA-induced TNF-α release from PBMCs (ELISA); conditions: PHA + 0.1uM DEX; PHA alone 4031.3, without PHA 271.6
Procedure: as §1, §2, §3

IL-6 = assay: PHA-induced IL-6 release from PBMCs (ELISA); conditions: PHA + 0.1uM DEX; PHA alone 703.0, without PHA 157
Procedure: as §1, §2, §3

## C[C@@H]1C[C@H]2[C@@H]3CCC4=CC(=O)C=C[C@]4(C)[C@@]3(F)[C@@H](O)C[C@]2(C)[C@@]1(O)C(=O)CO [DEX, dexamethasone]
IL-5
  Concentration of IL-5 released from PBMCs: 37 pg/mL
IFN-γ
  Concentration of IFN-γ released from PBMCs: 25 pg/mL
[1]
  PHA-induced PBMC proliferation, MTT assay data (absorbance 540 nm): 0.242
TNF-α
  Concentration of TNF-α released from PBMCs: 272.5 pg/mL
IL-6
  Concentration of IL-6 released from PBMCs: 157 pg/mL
